Assay results: patent publication US20060258729A1, “Antibacterial pyrazole carboxylic acid hydrazides” (priority 2002, published 2006)
In brackets after ≈: the same amount, converted by molar mass.

How the values were obtained:
B. subtilis pol IIIE [1] = target: T1, B. subtilis pol IIIE (Bacillus subtilis, UniProt O34623); assay: DNA polymerase assay, B. subtilis pol IIIE; type: biochemical
T1 construct: made in house

E. coli pol IIIE = target: T2, E. coli pol IIIE (Escherichia coli, UniProt P10443); assay: DNA polymerase assay, E. coli pol IIIE; type: biochemical; conditions: 80 μg/mL (190-260 μM) final concentration; all four dNTPs
T2 construct: purchased Enzyco, Denver, Colo
T2 sequence (P10443 whole entry): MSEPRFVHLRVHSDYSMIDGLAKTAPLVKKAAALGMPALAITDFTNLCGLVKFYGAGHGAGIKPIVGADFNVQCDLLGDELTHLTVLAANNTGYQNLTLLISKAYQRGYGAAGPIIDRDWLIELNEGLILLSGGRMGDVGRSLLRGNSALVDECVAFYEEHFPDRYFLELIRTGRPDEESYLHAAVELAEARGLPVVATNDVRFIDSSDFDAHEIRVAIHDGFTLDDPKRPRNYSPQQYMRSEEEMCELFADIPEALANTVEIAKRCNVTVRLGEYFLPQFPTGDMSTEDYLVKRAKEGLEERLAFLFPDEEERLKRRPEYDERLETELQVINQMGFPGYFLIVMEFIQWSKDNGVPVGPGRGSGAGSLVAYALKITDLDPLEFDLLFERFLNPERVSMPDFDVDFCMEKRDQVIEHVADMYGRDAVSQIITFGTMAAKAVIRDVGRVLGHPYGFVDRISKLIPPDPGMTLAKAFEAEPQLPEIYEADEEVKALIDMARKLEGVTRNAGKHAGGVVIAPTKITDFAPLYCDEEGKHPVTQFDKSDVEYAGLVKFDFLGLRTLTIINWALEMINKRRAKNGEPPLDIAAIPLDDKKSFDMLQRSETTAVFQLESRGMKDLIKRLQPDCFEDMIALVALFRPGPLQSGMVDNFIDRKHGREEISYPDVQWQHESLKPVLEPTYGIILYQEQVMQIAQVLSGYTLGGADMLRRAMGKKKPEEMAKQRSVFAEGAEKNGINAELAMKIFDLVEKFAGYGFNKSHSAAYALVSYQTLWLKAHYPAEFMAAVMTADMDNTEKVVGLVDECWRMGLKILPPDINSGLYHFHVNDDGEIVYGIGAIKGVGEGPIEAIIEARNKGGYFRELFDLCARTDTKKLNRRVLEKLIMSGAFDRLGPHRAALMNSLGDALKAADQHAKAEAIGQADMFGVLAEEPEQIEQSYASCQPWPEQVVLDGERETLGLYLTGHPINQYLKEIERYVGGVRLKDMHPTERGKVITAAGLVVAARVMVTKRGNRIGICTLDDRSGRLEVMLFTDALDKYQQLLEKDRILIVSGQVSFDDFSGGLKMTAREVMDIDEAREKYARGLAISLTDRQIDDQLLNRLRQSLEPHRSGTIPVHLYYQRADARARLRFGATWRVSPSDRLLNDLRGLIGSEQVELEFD
Procedure, shortened: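 Incorporation of 3H label into activated calf thymus DNA (0.4 mg/mL) from 10 μM of all four dNTPs, 10 min at 30 °C in pH 7.5 Tris/magnesium acetate, compounds in 1% DMSO. Reactions started with 0.025–0.06 units recombinant polymerase, stopped with cold TCA; IC50 and percent inhibition relative to DMSO control.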

[2] = tested on: Bacillus subtilis strain BD54; assay: Inhibition of bacterial growth (MIC), Bs; type: cell-based; conditions: 16 to 18 hours, 37° C., read-out: Minimum Inhibitory Concentration for Bacterial Growth, Bs
Procedure, shortened: (§1)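 Two-fold DMSO dilutions, usually 80-0.078 μg/mL, 1% DMSO final. Inoculum of 1×10^5 CFU/mL log-phase cells in LB or BHI, shaken 16 to 18 hours at 37° C. Growth read as OD 570 nm; MIC is the lowest concentration without growth.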

S. aureus Smith strain = assay: Inhibition of bacterial growth (MIC), Sm; type: cell-based, Staphylococcus aureus; conditions: Staphylococcus aureus, 16 to 18 hours, 37° C., read-out: Minimum Inhibitory Concentration for Bacterial Growth, Sm
Procedure, shortened: as §1

[3] = tested on: methicillin-resistant S. aureus strain 1094; assay: Inhibition of bacterial growth (MIC), MRSA; type: cell-based, Staphylococcus aureus; conditions: Staphylococcus aureus, MRSA, 16 to 18 hours, 37° C., read-out: Minimum Inhibitory Concentration for Bacterial Growth, MRSA
Procedure, shortened: as §1

[4] = tested on: Enterococcus faecalis strain 29212; assay: Inhibition of bacterial growth (MIC), Efcl; type: cell-based; conditions: 16 to 18 hours, 37° C., read-out: Minimum Inhibitory Concentration for Bacterial Growth, Efcl
Procedure, shortened: as §1

[5] = tested on: E. faecium clinical isolate; assay: Inhibition of bacterial growth (MIC), Efcm; type: cell-based; conditions: Enterococcus faecium, 16 to 18 hours, 37° C., read-out: Minimum Inhibitory Concentration for Bacterial Growth, Efcm
Procedure, shortened: as §1

[6] = tested on: vancomycin-resistant Enterococcus strain B42762; assay: Inhibition of bacterial growth (MIC), VRE; type: cell-based; conditions: VRE, 16 to 18 hours, 37° C., read-out: Minimum Inhibitory Concentration for Bacterial Growth, VRE
Procedure, shortened: as §1

B. subtilis pol IIIC = target: T3, B. subtilis pol IIIC (Bacillus subtilis, UniProt P13267); assay: Classical enzyme kinetic analyses (Lineweaver-Burk) with pol IIIC; type: biochemical; conditions: variable substrate dGTP; Compound 17 at 0, 20, 60 μM; HB-EMAU at 0, 1.6, 4.8 μM
T3 construct: made in house
T3 sequence (P13267 whole entry): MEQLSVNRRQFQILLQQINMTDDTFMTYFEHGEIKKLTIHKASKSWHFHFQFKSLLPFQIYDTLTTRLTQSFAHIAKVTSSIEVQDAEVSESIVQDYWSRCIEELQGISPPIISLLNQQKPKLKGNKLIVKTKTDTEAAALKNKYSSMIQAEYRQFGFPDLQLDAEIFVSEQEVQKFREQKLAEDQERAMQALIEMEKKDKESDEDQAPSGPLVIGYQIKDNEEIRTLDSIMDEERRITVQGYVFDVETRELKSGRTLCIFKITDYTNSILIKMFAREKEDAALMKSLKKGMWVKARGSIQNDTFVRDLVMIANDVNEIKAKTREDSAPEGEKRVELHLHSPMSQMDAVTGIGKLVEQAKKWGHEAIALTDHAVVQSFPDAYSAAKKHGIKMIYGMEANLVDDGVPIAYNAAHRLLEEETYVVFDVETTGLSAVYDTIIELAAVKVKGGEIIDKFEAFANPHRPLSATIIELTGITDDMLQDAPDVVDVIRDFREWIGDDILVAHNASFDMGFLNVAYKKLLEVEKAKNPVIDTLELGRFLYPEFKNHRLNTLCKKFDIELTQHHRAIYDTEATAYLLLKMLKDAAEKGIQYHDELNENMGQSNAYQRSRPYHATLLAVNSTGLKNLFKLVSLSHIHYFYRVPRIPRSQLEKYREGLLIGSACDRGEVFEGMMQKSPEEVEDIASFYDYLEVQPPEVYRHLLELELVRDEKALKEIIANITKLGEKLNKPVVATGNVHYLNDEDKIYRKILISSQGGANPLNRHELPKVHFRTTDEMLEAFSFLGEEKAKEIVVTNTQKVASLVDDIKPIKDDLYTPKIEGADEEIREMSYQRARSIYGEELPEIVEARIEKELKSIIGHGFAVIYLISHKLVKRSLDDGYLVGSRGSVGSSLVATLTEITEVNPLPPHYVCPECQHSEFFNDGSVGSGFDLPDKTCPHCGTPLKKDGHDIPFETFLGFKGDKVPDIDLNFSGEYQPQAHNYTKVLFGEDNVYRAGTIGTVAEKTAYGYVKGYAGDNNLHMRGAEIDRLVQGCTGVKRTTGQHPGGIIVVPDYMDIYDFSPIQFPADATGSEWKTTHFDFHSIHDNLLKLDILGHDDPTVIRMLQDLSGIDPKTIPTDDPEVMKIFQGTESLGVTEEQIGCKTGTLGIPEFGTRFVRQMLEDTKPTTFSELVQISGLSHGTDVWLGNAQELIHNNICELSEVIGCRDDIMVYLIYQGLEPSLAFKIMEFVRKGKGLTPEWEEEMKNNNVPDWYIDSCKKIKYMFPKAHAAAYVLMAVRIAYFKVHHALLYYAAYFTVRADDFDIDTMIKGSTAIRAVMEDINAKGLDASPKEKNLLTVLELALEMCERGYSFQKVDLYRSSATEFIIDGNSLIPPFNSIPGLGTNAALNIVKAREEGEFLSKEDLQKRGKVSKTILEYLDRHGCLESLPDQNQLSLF
Method: The variable substrate in the experiments for FIGS. 1A and 1B was dGTP. See text for details.
Classical enzyme kinetic analyses were performed with Compound 17 and pol IIIC in which reaction velocity was measured as a function of each substrate (dGTP) concentration at several inhibitor concentrations (0, 20, and 60 μM). The results are graphed in a double reciprocal plot by the method of Lineweaver and Burk in FIG. 1A and show the effect of varying dGTP.
Compounds of the anilinouracil (AU) family, classical DNA polymerase inhibitors, inhibit pol IIIC strictly by “competitive” inhibition. An example is shown in the double reciprocal plot in FIG. 1B for the compound N3-hydroxybutyl 6-(3′-ethyl-4′-methylanilino) uracil (HB-EMAU), tested at 0, 1.6, and 4.8 μM. Such AU compounds compete with the dGTP substrate for binding to the enzyme (Clements et al., J. Biol. Chem. 250, 522-526 (1975)). “Noncompetive” inhibitors are exemplified by the class of HIV reverse transcriptase inhibitors, 4,5,6,7-tetrahydro-5-methylimidazo[4,5,1-jk][1,4]benzodiazepin-2(1H)-one (TIBO), i.e., TIBO compounds bind a site adjacent to the active site (Spence et al., Science 267, 988-993 (1995)). In contrast, the data in FIG. 1A clearly indicate that Compound 17, a pyrazole carboxylic acid hydrazide, inhibits pol IIIC by an “uncompetitive” mechanism.

B. subtilis pol IIIE [7] = target: T1, B. subtilis pol IIIE; assay: DNA polymerase assay, B. subtilis pol IIIE; type: biochemical; remark: listed apart in the source

T1 sequence (O34623 whole entry): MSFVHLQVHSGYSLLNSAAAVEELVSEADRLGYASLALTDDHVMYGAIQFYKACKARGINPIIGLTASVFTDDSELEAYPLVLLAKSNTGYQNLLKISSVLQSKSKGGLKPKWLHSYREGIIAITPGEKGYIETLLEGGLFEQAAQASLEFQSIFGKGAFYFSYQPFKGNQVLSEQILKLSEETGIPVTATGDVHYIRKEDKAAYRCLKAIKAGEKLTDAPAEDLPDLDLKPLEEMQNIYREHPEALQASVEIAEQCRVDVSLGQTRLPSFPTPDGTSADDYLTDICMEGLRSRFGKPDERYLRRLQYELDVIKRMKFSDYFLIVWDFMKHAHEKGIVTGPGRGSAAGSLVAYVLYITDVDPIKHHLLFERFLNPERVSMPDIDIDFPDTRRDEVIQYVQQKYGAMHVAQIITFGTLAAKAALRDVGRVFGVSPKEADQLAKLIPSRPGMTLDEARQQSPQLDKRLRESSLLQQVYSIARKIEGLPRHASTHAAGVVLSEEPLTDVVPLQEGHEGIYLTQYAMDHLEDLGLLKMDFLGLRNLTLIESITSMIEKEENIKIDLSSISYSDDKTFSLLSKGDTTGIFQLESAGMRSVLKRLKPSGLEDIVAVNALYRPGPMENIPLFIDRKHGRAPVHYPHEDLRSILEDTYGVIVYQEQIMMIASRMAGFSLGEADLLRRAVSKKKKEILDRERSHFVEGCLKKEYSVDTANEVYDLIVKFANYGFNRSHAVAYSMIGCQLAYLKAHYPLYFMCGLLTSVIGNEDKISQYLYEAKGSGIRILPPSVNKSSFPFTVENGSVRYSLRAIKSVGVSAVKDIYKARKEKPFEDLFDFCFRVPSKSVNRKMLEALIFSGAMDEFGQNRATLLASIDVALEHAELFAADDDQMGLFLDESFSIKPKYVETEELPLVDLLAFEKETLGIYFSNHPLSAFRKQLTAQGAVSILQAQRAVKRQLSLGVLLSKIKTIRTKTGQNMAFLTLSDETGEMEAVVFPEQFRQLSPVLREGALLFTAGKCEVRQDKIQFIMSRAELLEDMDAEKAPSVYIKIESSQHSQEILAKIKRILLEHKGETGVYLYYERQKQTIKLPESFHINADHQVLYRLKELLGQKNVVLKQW

## COc1ccc(-c2cc(C(=O)NN=Cc3cc(OC)c(OC)c(OC)c3)[nH]n2)cc1 [Compound 17]
B. subtilis pol IIIE [1]; 80 μg/mL (190-260 μM) final concentration, all four dNTPs, read-out: Percent Enzymatic Inhibition B. subtilis pol IIIE
  inhibition at 80 µg/mL: > 20%
B. subtilis pol IIIE [1]; B. subtilis Pol IIIE IC50, 4 dNTPs, in the presence of all four dNTP substrates
  IC50: > 780 µM
E. coli pol IIIE
  Percent Enzymatic Inhibition E. coli pol IIIE: Inactive
[2]
  MIC: 0.625 µg/mL (≈ 1.52 µM)
S. aureus Smith strain
  MIC: 2.5 µg/mL (≈ 6.09 µM)
[3]
  MIC: 2.5 µg/mL (≈ 6.09 µM)
[4]
  MIC: 20 µg/mL (≈ 48.7 µM)
[5]
  MIC: 5 µg/mL (≈ 12.2 µM)
[6]
  MIC: 5 µg/mL (≈ 12.2 µM)
B. subtilis pol IIIC
  Mechanism of inhibition of pol IIIC (double reciprocal plot): uncompetitive inhibition mechanism
B. subtilis pol IIIE [7]; B. subtilis Pol IIIE IC50, −dATP, in the absence of dATP
  IC50: > 780 µM
B. subtilis pol IIIE [7]; B. subtilis Pol IIIE IC50, −dCTP, in the absence of dCTP
  IC50: > 780 µM
B. subtilis pol IIIE [7]; B. subtilis Pol IIIE IC50, −dGTP, in the absence of dGTP
  IC50: > 780 µM
